“Also recorded” adds a separate entry of the source. Blank lines part the entries; values can stand above or below the compound they belong to.
What was measured:
ZF-responsive promoter [1] = assay: Small molecule inducible synTF activation of fluorescent reporter in HEK293 and Jurkat cell lines; format: cell-based, human; conditions: both HEK293 and Jurkat cell lines; compared to untreated
Text: Output fluorescence as a function of several different small molecule (e.g., ABA, 4OHT, or grazoprevir) treatment concentrations is also indicated here.
Inducible synTFs were first characterized using GFP (or another detectable marker such as mCherry) as the reporter. The whole system was introduced into Jurkat T cells via lentiviral transduction with multiplicity of infection of 25 to ensure high efficiency, quantifying viral copy number (VCN) with qPCR. To characterize the inducible synTF controllers, cells at 5×10^4 cells each in 96-well plates were inoculated with lentivirus, and eight different drug concentrations were added spanning three orders of magnitude (e.g., GZV 0-10 μM, 4OHT 0-1 μM), and GFP expression levels can be quantified with flow cytometry (see e.g., FIG. 10A-10D). Gene expression levels can be normalized to VCN. From these dose-responses, the dynamic range and threshold of activation can be defined. Since the single vector design can lack a selection marker, transduction efficiency was assumed to be equal to the percentage of GFP positive cells after induction by 4OHT or GZV.
Tunable gene activation was achieved using small molecule inducible synTFs. Inducibility profiles were determined for each of the three inducible synTF activators, in both HEK293 and Jurkat cell lines. The reporter expression was evaluated across time and varying drug concentrations. Day 4 represented the highest levels of expression that were assayed, indicating strong inducible expression in drug-treated lines relative to untreated cell lines (see e.g., FIG. 10A-10D).

ZF-responsive promoter [2] = assay: Inducible synthetic transcriptional repression of a fluorescent protein, HEK293; format: cell-based, human; conditions: compared to untreated
Protocol: Tunable gene silencing can also be achieved using small molecule inducible synTFs. Inducible synTFs were engineered that were capable of repressing gene expression. The responsive promoter was modified to constitutively express a fluorescent output. The p65 activation domain was replaced with a KRAB repression domain (human-derived silencer), and the same ZF-drug pairs were utilized as the synTF activators. Inducibility profiles were determined for each of the three inducible synTF repressors in HEK cell lines, and there was strong silencing of reporter expression over time in drug-treated lines relative to untreated cell lines (see e.g., FIG. 11A-11B, 12A-12C).

ZF-responsive promoter [3] = assay: 4OHT-inducible transcriptional activation of a fluorescent protein using ERT2 domain, Jurkat; format: cell-based, human
Text: ERT2 nuclear translocation domain, which is responsive to a small molecule (4-hydroxytamoxifen=4OHT), can be used to regulate a synTF as described herein (see e.g., Indra et al. Nucleic Acids Res (1999)). The human estrogen receptor (ER) contains a ligand responsive domain that, when fused to other protein domains, can yield ligand-dependent control over activity. The domain naturally associates with cytoplasmic factors in the cell in the absence of cognate ligands, effectively sequestering itself in the cytoplasm. Binding of cognate ligands, such as estrogen or other steroid hormone derivatives, cause a conformational change to the receptor that allow dissociation from the cytoplasmic complexes and expose a nuclear localization signal, permitting translocation into the nucleus.
Subsequently, the administration of 4OHT can allow conditional nuclear translocation of the synTF, allowing synTF functionality in the cellular nucleus (see e.g., FIG. 4).
Output fluorescence was measured as a function of several different 4OHT treatment concentrations as indicated (dose response; see e.g., FIG. 8A).

ZF-responsive promoter [4] = assay: Activation and tunable deactivation of a fluorescent protein using ERT2 and SMASh domains, Jurkat; format: cell-based, human
Protocol: Inducible synthetic transcriptional activation and tunable deactivation of a fluorescent protein in human cell lines using ERT2 and SMASh domains: Three Jurkat T cell lines were tested: (1) ZF-p65-ERT2 (no SMASh, see e.g., FIG. 4); (2) ZF-p65-ERT2-SMASh (C-terminal SMASh); and (3) SMASh-ZF-p65-ERT2 (N-terminal SMASh) (see e.g., FIG. 16A). […] Absence of a SMASh-responsive small molecule (grazoprevir) for 12 days led to equivalent, slow deactivation of the reporter to baseline levels. […] This rapid deactivation of the reporter was compared to the condition lacking the SMASh domain, which led to equivalent slow deactivation as in the “absence of grazoprevir” condition (see e.g., FIG. 16B).

ZF-responsive promoter [5] = assay: Tunable activation of a fluorescent protein by co-administered 4OHT and GZV, ERT2 and SMASh domains, Jurkat; format: cell-based, human; conditions: co-administration of varying 4OHT and GZV for 4 days
Protocol: Tunable synthetic transcriptional activation of a fluorescent protein in human cell lines using ERT2 and SMASh domains: Two Jurkat T cell lines were tested: (1) ZF-p65-ERT2-SMASh (C-terminal SMASh) and (2) SMASh-ZF-p65-ERT2 (N-terminal SMASh).

ZF-responsive promoter [6] = assay: Dual-drug regulated IL4 and CD19-CAR expression in CD4+ primary human T cells; format: cell-based
Text: (see e.g., FIG. 14A-14B).

ZF-responsive promoter [7] = assay: Inducible repression of a fluorescent protein using ERT2 and SMASh domains, Jurkat; format: cell-based, human; conditions: 6 days; KRAB-, HP1a-, EED-ZF-ERT2-SMASh lines
Protocol: Inducible synthetic transcriptional repression of a fluorescent protein in human cell lines using […] domains: Three Jurkat T cell lines were tested: (1) KRAB-[…] (3) […]. […] Absence of a SMASh-responsive small molecule (GZV) in the negative control led to significant “leaky” repression in the absence of 4OHT (see e.g., FIG. 18).

ZF-responsive promoter [8] = assay: ABA-inducible transcriptional activation of a fluorescent protein using ABI/PYL domains, Jurkat; format: cell-based, human
Text: ABI/PYL induced proximity domains that are responsive to a small molecule (abscisic acid=ABA) can be used to regulate a synTF as described herein (see e.g., Liang et al. Sci Signal, 2011). The ABA-insensitive 1 (ABI1) and PYR1-like (PYL) domains originating form Arabidopsis thaliana have complementary surfaces that can conditionally interact when coordinated by the small molecule abscisic acid (ABA). ABA is a plant hormone that is naturally present at low levels within the human diet, and is subsequently presumed to be a safe small molecule for human administration.
Subsequently, the administration of ABA can allow conditional dimerization between the ABI1 and PYL subunits, allowing the ZF and effector domains to remain locally coupled and retaining synTF functionality (see e.g., FIG. 3).
Output fluorescence was measured as a function of several different ABA treatment concentrations as indicated (dose response; see e.g., FIG. 7A).

ZF-responsive promoter [9] = assay: Inducible activation of CD19-CAR in CD4+ primary human T cells; format: cell-based
Text: (§1) Output fluorescence as a function of several different grazoprevir treatment concentrations is also indicated here. […] Cytokine production as a function of several different grazoprevir treatment concentrations is also indicated here (see e.g., FIG. 13A-13D).
(§2) Inducible synTFs can regulate […] expression in primary cells. The grazoprevir-inducible synTF was used to control expression of a CD19-CAR in primary CD4+ cells. […] Such results highlight that the ability to reliably control expression of outputs from therapeutic, thus controlling their functionalities in increasingly complex settings (see e.g., FIG. 13A-13D).

ZF-responsive promoter [10] = assay: Grazoprevir-inducible transcriptional activation of a fluorescent protein using NS3, Jurkat; format: cell-based, human
Text: Non-structural protein 3 (NS3) domain can be used for small molecule regulated control over synTF activity (see e.g., Lin et al. PNAS (2008)). The non-structural protein 3 (NS3) is a serine protease originating from the hepatitis C virus and is naturally capable of self-excision from expressed proteins.
Subsequently, the administration of one of these small molecules—e.g. grazoprevir—can prevent self-excision of NS3 from the fusion protein, allowing the ZF and effector domains to remain locally coupled and retaining synTF functionality.
In the presence of a small molecule, the NS3 protease activity is inhibited and the fusion protein complex is stabilized, permitting the transcription factor to regulate expression of an output gene from a responsive promoter (see e.g., FIG. 5A-5C).
Output fluorescence was measured as a function of several different grazoprevir treatment concentrations as indicated (dose response) (see e.g., FIG. 9A).

[11] = commonly taken at 100 mg/day for up to 12 weeks; cited from earlier work
ZF-responsive promoter [12] = assay: Inducible activation of IL10 in Jurkat T cell lines, double or single lentiviral vector; format: cell-based, human; conditions: 1 uM GZV for 2 days
Text: This inducible activation can be achieved through the delivery of separate lentiviral cassettes for NS3-synTF expression and IL10 production (“double lentiviral vector”), or through the delivery of a single lentiviral cassette expressing the NS3-synTF as well as regulating IL10 production (see e.g., FIG. 15A-15C).
A single lentiviral vector was engineered that was capable of expressing a grazoprevir-inducible synTF that would in turn regulate expression of IL-10. The size of this entire insert including expression elements was 3.5 kB, which is minimal and […] the total payload packaging limits of certain vectors.

ZF-responsive promoter [13] = assay: Grazoprevir-inducible transcriptional repression of a fluorescent protein, HEK293 and Jurkat; format: cell-based, human; conditions: compared to untreated
[14] = test system: CD19 antigen-presenting target cells; assay: Co-culture of induced CD19-CAR primary T cells with CD19 antigen-presenting target cells, cytokine production; format: cell-based, human
Text: as §1, §2

[15] = compared to untreated cell line

Structure (SMILES): CC/C(=C(\c1ccc(O)cc1)c1ccc(OCCN(C)C)cc1)c1ccccc1 [4OHT, 4-hydroxytamoxifen]
- fluorescent protein output on administration of small molecule (ZF-responsive promoter [1]): temporal activation of a fluorescent protein output
- fluorescent protein output, synTF with repressor effector domain (ZF-responsive promoter [2]): temporal silencing of a fluorescent protein output
- fluorescent protein output on administration of small molecule (ZF-responsive promoter [3]; [15]): temporal activation of a fluorescent protein output
- fluorescent protein output on removal of small molecule (ZF-responsive promoter [3]; removal after four days): temporal de-activation of a fluorescent protein output
- fluorescent protein on administration of 4OHT (ZF-responsive promoter [4]; 4 days, all three Jurkat lines): temporal activation of a fluorescent protein
- fluorescent protein on removal of 4OHT (ZF-responsive promoter [4]; removal from days 6-16, all cell lines): temporal deactivation of the fluorescent protein
- level of fluorescent protein activation (ZF-responsive promoter [5]): maximal activation
- IL4 expression (ZF-responsive promoter [6]; ERT2-synTF): expression and secretion of IL4 cytokine
- fluorescent protein on administration of 4OHT, repressor synTFs (ZF-responsive promoter [7]): temporal repression of a fluorescent protein

Structure (SMILES): CC1=CC(=O)CC(C)(C)[C@@]1(O)/C=C/C(C)=C\C(=O)O [ABA, abscisic acid]
- fluorescent protein output on administration of small molecule (ZF-responsive promoter [1]): temporal activation of a fluorescent protein output
- fluorescent protein output, synTF with repressor effector domain (ZF-responsive promoter [2]): temporal silencing of a fluorescent protein output
- fluorescent protein output on administration of small molecule (ZF-responsive promoter [8]; [15]): temporal activation of a fluorescent protein output
- fluorescent protein output on removal of small molecule (ZF-responsive promoter [8]; removal after four days): temporal de-activation of a fluorescent protein output

- CD19-CAR fold induction (ZF-responsive promoter [9]; day 3, highest concentration): strong fold induction
Structure (SMILES): C=C[C@@H]1C[C@]1(NC(=O)[C@@H]1C[C@@H]2CN1C(=O)[C@H](C(C)(C)C)NC(=O)O[C@@H]1C[C@H]1CCCCCc1nc3ccc(OC)cc3nc1O2)C(=O)NS(=O)(=O)C1CC1 [grazoprevir]
- CD19-CAR expression (ZF-responsive promoter [9]; CD4+ primary human T cells, several grazoprevir concentrations over time): temporal activation of a fluorescently-tagged chimeric antigen receptor (CD19-CAR) protein; also recorded: dose-dependent expression of synTF
- fluorescent protein output on administration of small molecule (ZF-responsive promoter [1]): temporal activation of a fluorescent protein output
- fluorescent protein output on administration of small molecule (ZF-responsive promoter [10]; [15]): temporal activation of a fluorescent protein output
- fluorescent protein output on removal of small molecule (ZF-responsive promoter [10]; removal after four days): temporal de-activation of a fluorescent protein output
- fluorescent protein output, synTF with repressor effector domain (ZF-responsive promoter [2]): temporal silencing of a fluorescent protein output
- safety profile [11]: exceptional safety profile
- reporter deactivation with SMASh-responsive small molecule (ZF-responsive promoter [4]; grazoprevir for 12 days after 4OHT removal): fast deactivation of the reporter to the baseline levels
- IL10 expression (ZF-responsive promoter [12]): temporal activation of a cytokine (IL10); also recorded: strong induced expression of IL-10
- fluorescent protein output, synTF with repressor effector domain (ZF-responsive promoter [13]): temporal silencing of a fluorescent protein output
- level of fluorescent protein activation (ZF-responsive promoter [5]): little-to-no activation
- T-cell activation, cytokine production (IFNgamma, IL-2) [14]: T-cell activation, measured by enhanced production of cytokines; also recorded: dose-dependent production of IFNgamma and IL-2 cytokines
- CD19-CAR expression in dual-drug context (ZF-responsive promoter [6]; orthogonal ZF-responsive promoter): regulated activation of a fluorescently-tagged chimeric antigen receptor (CD19-CAR) protein

From patent publication US11530246B2, “Regulated synthetic gene expression systems” (TRUSTEES OF BOSTON UNIVERSITY, priority 2019, dated 2022)
